For 20 compounds, IC50 results are on record in patent US20230322846A9, “NEUROACTIVE STEROIDS AND THEIR METHODS OF USE” (SAGE THERAPEUTICS, INC., priority 2018, published 2023).

The term IC50 denotes the concentration needed to halve the response being measured.

The target of the test is [35S]-TBPS binding, rat brain cortical membranes. The experiment in a line: Steroid inhibition of [35S]-TBPS binding. The conditions noted are these: 3 nM [35S]-TBPS, in the presence of 5 mM GABA. An outline of the steps:
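Rat cortical P2 membranes incubated 90 min at room temperature with 3 nM [35S]-TBPS, […] and test compound (0.5% DMSO final) in NaCl/Na–K phosphate pH 7.4; nonspecific binding with […]. Filter-bound radioactivity counted; IC50 and Imax from nonlinear fits, mean ± SEM.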

As for `COc1ccc(C(=O)N[C@H](C)[C@H]2CC[C@H]3[C@@H]4CC[C@@H]5C[C@](C)(O)CC[C@@H]5[C@H]4CC[C@]23C)cc1` [Example 106], the IC50 fell in the range of 0.1 to 1 µM.
To `CCC[C@@]1(O)CC[C@H]2[C@H](CC[C@@H]3[C@@H]2CC[C@]2(C)[C@@H]([C@@H](C)Cn4nnnc4C)CC[C@@H]32)C1` [Example 324, (3R,5R,8R,9R,10S,13S,14S,17R)-13-methyl-17-(1-(5-methyl-1H-tetrazol-1-yl)propan-2-yl)-3-propylhexadecahydro-1H-cyclopenta[a]phenanthren-3-ol] belongs under 0.1 µM; to `CCOC[C@@]1(O)CC[C@H]2[C@H](CC[C@@H]3[C@@H]2CC[C@]2(C)[C@@H]([C@@H](C)NS(=O)(=O)c4cccc(C#N)c4)CC[C@@H]32)C1` [Example 69], under 0.1 µM; to `Cc1cc(C#N)ccc1N[C@@H](C)[C@H]1CC[C@H]2[C@@H]3CC[C@@H]4C[C@](C)(O)CC[C@@H]4[C@H]3CC[C@]12C` [Example 251], 0.1 to 1 µM.
To `Cc1cncc(C[C@@H](C)[C@H]2CC[C@H]3[C@@H]4CC[C@@H]5C[C@](C)(O)CC[C@@H]5[C@H]4CC[C@]23C)n1` [Example 442] belongs 0.1 to 1 µM; to `COC[C@@]1(O)CC[C@H]2[C@@H](CC[C@@H]3[C@@H]2CC[C@]2(C)[C@@H](CCn4nnc(C)n4)CC[C@@H]32)C1` [Example 295, (3R,5S,8R,9R,10S,13R,14S,17R)-3-(methoxymethyl)-13-methyl-17-(2-(5-methyl-2H-tetrazol-2-yl)ethyl)hexadecahydro-1H-cyclopenta[a]phenanthren-3-ol], under 0.1 µM.
To `CCOC[C@@]1(O)CC[C@@]2(C)[C@H](CC[C@@H]3[C@@H]2CC[C@]2(C)[C@@H]([C@@H](C)N(C)S(=O)(=O)c4ccc(C#N)cn4)CC[C@@H]32)C1` [Example 78, 5-cyano-N—((R)-1-((3R,5R,8R,9S,10S,13S,14S,17S)-3-(ethoxymethyl)-3-hydroxy-10,13-dimethylhexadecahydro-1H-cyclopenta[a]phenanthren-17-yl)ethyl)-N-methylpyridine-2-sulfonamide] belongs under 0.1 µM; to `C[C@@H](Cn1cc(C#N)cn1)[C@@]1(O)CC[C@H]2[C@@H]3CC[C@@H]4C[C@](C)(O)CC[C@@H]4[C@H]3CC[C@@]21C` [Example 345, 1-((S)-2-((3R,5R,8R,9R,10S,13S,14S,17S)-3,17-dihydroxy-3,13-dimethylhexadecahydro-1H-cyclopenta[a]phenanthren-17-yl)propyl)-1H-pyrazole-4-carbonitrile], 1 to 10 µM; to `CC[C@@]1(O)CC[C@@]2(C)[C@@H](CC[C@@H]3[C@@H]2CC[C@]2(C)[C@@H]([C@H](C)Cn4nnc(C)n4)CC[C@@H]32)C1` [Example 360, (3R,5S,8R,9S,10S,13S,14S,17R)-3-ethyl-10,13-dimethyl-17-((S)-1-(5-methyl-2H-tetrazol-2-yl)propan-2-yl)hexadecahydro-1H-cyclopenta[a]phenanthren-3-ol], 1 to 10 µM.
`C[C@@H](Nc1cccc(C#N)c1)[C@H]1CC[C@H]2[C@@H]3CC[C@@H]4C[C@](C)(O)CC[C@@H]4[C@H]3CC[C@]12C` [Example 202]: the IC50 is under 0.1 µM.
Then `C[C@H](NC(=O)c1ccc(F)cn1)[C@H]1CC[C@H]2[C@@H]3CC[C@@H]4C[C@](C)(O)CC[C@@H]4[C@H]3CC[C@]12C` [Example 124], with 0.1 to 1 µM; and `C[C@@]1(O)CC[C@H]2[C@H](CC[C@@H]3[C@@H]2CC[C@]2(C)[C@@H](CN4CC[C@H](c5ccccc5)C4=O)CC[C@@H]32)C1` [Example 12, (R)-1-(((3R,5R,8R,9R,10S,13S,14S,17S)-3-hydroxy-3,13-dimethylhexadecahydro-1H-cyclopenta[a]phenanthren-17-yl)methyl)-3-phenylpyrrolidin-2-one], with under 0.1 µM; and `CCOC(=O)c1cnc(C[C@H](C)[C@H]2CC[C@H]3[C@@H]4CC[C@H]5C[C@](C)(O)CC[C@@H]5[C@H]4CC[C@]23C)o1` (stereo in doubt) [Example 455], with under 0.1 µM.
To `COC[C@@]1(O)CC[C@H]2[C@H](CC[C@@H]3[C@@H]2CC[C@]2(C)[C@@H]([C@H](C)Nc4cccc(C#N)c4)CC[C@@H]32)C1` [Example 255] belongs 1 to 10 µM.
Consider `C[C@H](NC(=O)c1cccnc1)[C@H]1CC[C@H]2[C@@H]3CC[C@@H]4C[C@](C)(O)CC[C@@H]4[C@H]3CC[C@]12C` [Example 30, N—((S)-1-((3R,5R,8R,9R,10S,13S,14S,17S)-3-hydroxy-3,13-dimethylhexadecahydro-1H-cyclopenta[a]phenanthren-17-yl)ethyl)nicotinamide], for which the IC50 lay in the range of 1 to 10 µM.
Turning to `C[C@@]1(O)CC[C@H]2[C@H](CC[C@@H]3[C@@H]2CC[C@]2(C)[C@@H]([C@@H](C#N)Cn4cc(C#N)cn4)CC[C@@H]32)C1` [Example 356, 1-((R)-2-cyano-2-((3R,5R,8R,9R,10S,13S,14S,17R)-3-hydroxy-3,13-dimethylhexadecahydro-1H-cyclopenta[a]phenanthren-17-yl)ethyl)-1H-pyrazole-4-carbonitrile], the IC50 was under 0.1 µM.
To `COC[C@@]1(O)CC[C@H]2[C@H](CC[C@@H]3[C@@H]2CC[C@]2(C)[C@@H]([C@@H](C)Cn4nccc4C#N)CC[C@@H]32)C1` [Example 37, 1-((R)-2-((3R,5R,8R,9R,10S,13S,14S,17R)-3-hydroxy-3-(methoxymethyl)-13-methylhexadecahydro-1H-cyclopenta[a]phenanthren-17-yl)propyl)-1H-pyrazole-5-carbonitrile] belongs under 0.1 µM; to `CCOC[C@@]1(O)CC[C@H]2[C@H](CC[C@@H]3[C@@H]2CC[C@]2(C)[C@@H]([C@@H](C)N(C)S(=O)(=O)c4ccc(C#N)cc4)CC[C@@H]32)C1` [Example 68, 4-cyano-N—((R)-1-((3R,5R,8R,9R,10S,13S,14S,17S)-3-(ethoxymethyl)-3-hydroxy-13-methylhexadecahydro-1H-cyclopenta[a]phenanthren-17-yl)ethyl)-N-methylbenzenesulfonamide], under 0.1 µM; to `CCC[C@@]1(O)CC[C@H]2[C@H](CC[C@@H]3[C@@H]2CC[C@@]2(C)[C@H]3CC[C@]2(O)[C@H](C)Cn2cc(C#N)cn2)C1` [Example 348, 1-((R)-2-((3R,5R,8R,9R,10S,13S,14S,17S)-3,17-dihydroxy-13-methyl-3-propylhexadecahydro-1H-cyclopenta[a]phenanthren-17-yl)propyl)-1H-pyrazole-4-carbonitrile], 1 to 10 µM.
Take `C[C@@H](NS(=O)(=O)c1ccccc1)[C@H]1CC[C@H]2[C@@H]3CC[C@@H]4C[C@](C)(O)CC[C@@H]4[C@H]3CC[C@]12C` [Example 18, N—((R)-1-((3R,5R,8R,9R,10S,13S,14S,17S)-3-hydroxy-3,13-dimethylhexadecahydro-1H-cyclopenta[a]phenanthren-17-yl)ethyl)benzenesulfonamide]: the IC50 is under 0.1 µM.
